Literature values as cited in US20240384361A1, “LONG-TERM SURROGATE VIRUS ASSAYS AND METHODS” (priority 2021, published 2024).

How the values were obtained:
ASFV [1] = tested on: ASFV
ASFV [2] = tested on: ASFV; remark: listed apart in the source

SMILES	ASFV infectivity in feed matrices (ASFV [1])	virus inactivation on wood surfaces (ASFV [2])
CCCCCCCCCCCC(=O)OCC(O)CO (centres unmarked) [glycerol monolaurate]	reduce ASFV infectivity	
O=C(O)CC(O)(CC(=O)O)C(=O)O [citric acid]		completely inactivated
